According to patent US8293716B2, “Method of treating cancer by modulation of mortalin” (Ramot At Tel Aviv University Ltd., priority 2005, dated 2012):
Where a SMILES comes first, the peptide text is derived from it. The star is where a group is joined. Cbz = O=C(OCc1ccccc1)*; CH2F = FC*

Key:
solid tumors = settings: cited from earlier work
mortalin [1] = test: Mortalin release into supernatants of K562 cells, SDS-PAGE and Western blotting; assay type: cell-based, human; settings: for release of mortalin from complement-treated cells: 30 minutes pretreatment (PMB 100 micrograms per milliliter, PD98059 10 micromolar), then sublytic anti-K562 antibody and NHS, FIGS. 6a-d; for mortalin release in response to sublytic dose of pore-former: mellitin 70 micromolar, SLO 900 units per milliliter, 10 minutes 37 degrees, no complement, FIGS. 4c-d
Experimental: (§1) Collection of extracellular protein: Cells were treated with antibodies for 30 minutes at 4 degrees centigrade and then with NHS or HI-NHS (50 percent) for 10 minutes at 37 degrees centigrade. Then, the cells were extensively washed into HBSS and incubated at 37 degrees centigrade. At different times, cells were removed by centrifugation at 250×g and supernatants were collected and kept frozen until analyzed. In some experiments, cells were first metabolically labeled for 2 hours at 37 degrees centigrade with an L-[^35S]methionine, L-[^35S]cysteine mix (Amersham Pharmacia, Uppsala, Sweden) at 200 microcuries per milliliter in RPMI (lacking methionine and cysteine) and 20 millimolar HEPES-pH 7.0. Cytotoxicity assays and collection of extracellular proteins were performed as described above. Radioactivity in the supernatants was quantified in a beta-Scintillation Counter (Tri-Carb, Packard).
Protein analyses: Protein concentration was analyzed with the BCA Protein Assay Kit (Pierce, Rockford, Ill., USA). Samples of 20 micrograms of protein was subjected to SDS-PAGE under reducing conditions (50 millimolar DTT), in a 10 percent acrylamide gel, and stained with Coomassie Blue or silver. Selected protein species were excised from Coomassie Blue-stained gels and analyzed by mass spectrometry (MALDI-MS) at the Maiman Institute for Proteome Research (Tel-Aviv University). Alternatively, the electrophoretically separated proteins were transferred onto a nitrocellulose membrane (Schleicher & Schuell, Dassel, Germany). The membrane was blocked with 5 percent skim milk (Tnuva, Rehovot, Israel) in Tris-buffered saline containing 0.05 percent Tween-20 (Sigma; TBST) for 1 hour at room temperature. The membrane was treated with rabbit anti-mortalin antibodies and then with peroxidase-conjugated goat anti-rabbit IgG. The labeled membrane was developed with an enhanced chemiluminescence reagent (Pierce, Rockford, Ill., USA) and exposed to a SuperRX film (Fuji, Tokyo, Japan).

K562 cells [2] = test: Release of metabolically-labeled proteins from complement-treated K562 cells; assay type: cell-based, human; settings: pretreatment 30 minutes with 100 micrograms per milliliter PMB or 10 micromolar PD; radioactivity in supernatants; FIG. 6e
Experimental: as §1

K562 cells [3] = test: Complement-induced protection assay; assay type: cell-based, human; settings: cells pre-treated with inhibitor and sublytic complement, then lytic dose of antibody and complement; FIGS. 6f-g
Experimental: Cell lysis and induced protection assays: Cytotoxicity assays were performed as previously described (Reiter, Y. and Fishelson, Z. 1992. Mol Immunol 29:771). Briefly, cells were incubated with diluted anti-K562 antiserum for 30 minutes at 4 degrees centigrade and then with complement (NHS, C7- or C8-deficient serum or HI-NHS, 50 percent) for 60 minutes at 37 degrees centigrade. Cell lysis was determined via Trypan blue staining. For the complement-induced protection assays, the cells were first treated with sublytic doses of antibody and NHS, washed and then incubated with lytic doses of antibody and NHS (Reiter, Y. et al., 1992. Eur J Immunol 22:1207). Statistical significance was analyzed by using the two-sided unpaired student's t-test.

K562 cells [4] = test: Complement-mediated cell lysis (cytotoxicity) assay, Trypan blue staining; assay type: cell-based, human; settings: 10 micromolar cathepsin L inhibitor 30 minutes, anti-K562 1:40 or 1:50, NHS 60 minutes; versus DMSO; FIG. 8b
Experimental: (§2) Cells and cell lysates: The human erythroleukemic cell line K562 was cultured in RPMI-1640 medium supplemented with 10 percent (v/v) heat-inactivated fetal bovine serum (Gibco laboratories, Grand Island, NY, USA), 1 percent glutamine, 2 percent pyruvate and antibiotics mixture (Bio-Lab, Jerusalem, Israel), at 37 degrees centigrade in a 5 percent carbon dioxide atmosphere. To prepare cell lysates, 20 million cells were mixed with 1 milliliter lysis buffer composed of 100 millimolar Tris-pH 7.5, 10 millimolar EDTA, protease inhibitor cocktail (Sigma) and 0.7 percent Triton X-100. After 3 cycles of freezing and thawing, the cell lysate was subjected to centrifugation for 15 minutes at 14,000×g, and the supernatant was collected and diluted with 1 milliliter HBSS (Sigma, Rehovot, Israel).
Cell lysis and induced protection assays: Cytotoxicity assays were performed as previously described (Reiter, Y. and Fishelson, Z. 1992. Mol Immunol 29:771). Briefly, cells were incubated with diluted anti-K562 antiserum for 30 minutes at 4 degrees centigrade and then with complement (NHS, C7- or C8-deficient serum or HI-NHS, 50 percent) for 60 minutes at 37 degrees centigrade. Cell lysis was determined via Trypan blue staining. […] Statistical significance was analyzed by using the two-sided unpaired student's t-test.

mortalin [5] = test: Mortalin expression level in K562 cells, Western blotting of cell lysates; assay type: cell-based, human; settings: cathepsin L inhibitor 5, 10, 20 or 40 micromolar, 30 minutes 37 degrees; FIG. 8a
Experimental: as §2
Protein analyses: Protein concentration was analyzed with the BCA Protein Assay Kit (Pierce, Rockford, Ill., USA). Samples of 20 micrograms of protein was subjected to SDS-PAGE under reducing conditions (50 millimolar DTT), in a 10 percent acrylamide gel, and stained with Coomassie Blue or silver. Selected protein species were excised from Coomassie Blue-stained gels and analyzed by mass spectrometry (MALDI-MS) at the Maiman Institute for Proteome Research (Tel-Aviv University). […]

Compound | release of mortalin from complement-treated cells (mortalin [1]) | complement-induced release of metabolically-labeled proteins (K562 cells [2]) | acquired resistance to lytic complement after sublytic complement (K562 cells [3]) | mortalin release in response to sublytic dose of pore-former (mortalin [1]) | also measured
CCn1c(=O)/c(=C2\Sc3ccccc3N2C)s/c1=C\c1cccc[n+]1CC.[Cl-] [MKT-077] | – | – | – | – | kidney toxicity in human patients (solid tumors; Propper et al. 1999): irreversible kidney damage; effectiveness when used to treat cancer patients (solid tumors; cancer patients): ineffective or suboptimally effective
COc1cccc(-c2cc(=O)c3ccccc3o2)c1N [PD98059] | significantly reduced | blocked | did not acquire the resistance to lytic complement | – | –
O=C(N[C@@H](Cc1ccccc1)C(=O)N[C@@H](Cc1ccccc1)C(=O)CF)OCc1ccccc1 [cathepsin L inhibitor, Z-Phe-Phe-CH2F] (Cbz-Phe-Phe-CH2F) | – | – | – | – | resistance of treated cells to lysis by antibody and complement (K562 cells [4]): enhanced resistance; mortalin expression in K562 cells (mortalin [5]): elevation of mortalin expression
Streptolysin O [SLO] | – | – | – | not released | –
mellitin | – | – | – | not released | –
polymyxin B [PMB] | significantly reduced | blocked | did not acquire the resistance to lytic complement | – | –
